From ChEMBL document CHEMBL1201862, “PubChem BioAssay data set” (2004)
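Interpolation was linear, between the two tested concentrations surrounding the appropriate level; five concentrations were tested over 48 hours in 96-well plates. The concentration for 50% growth inhibition is given as GI50.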 Activity calls are given as the source filed them. Cut-off read from the data, not from the text of the source: active = GI50 up to about 1.1 µM and inactive = higher.

Tests used:
Assay in all cases: DTP human tumour cell line panel, 48 h
[1] = tested on: 786-0
[2] = tested on: A498
[3] = tested on: A549
[4] = tested on: ACHN
[5] = tested on: BT-549
[6] = tested on: CAKI-1
[7] = tested on: COLO 205
[8] = tested on: DU-145
[9] = tested on: EKVX
[10] = tested on: HCC 2998
[11] = tested on: HCT-116
[12] = tested on: HCT-15
[13] = tested on: HOP-62
[14] = tested on: HT-29
[15] = tested on: Hs-578T
[16] = tested on: IGROV-1
[17] = tested on: K562
[18] = tested on: KM12
[19] = tested on: LOX IMVI
[20] = tested on: M14
[21] = tested on: MCF7
[22] = tested on: MDA-MB-231
[23] = tested on: MDA-MB-435
[24] = tested on: MDA-N
[25] = tested on: MOLT-4
[26] = tested on: Malme-3M
[27] = tested on: NCI-H23
[28] = tested on: NCI-H460
[29] = tested on: NCI-H522
[30] = tested on: NCI/ADR-RES
[31] = tested on: OVCAR-3
[32] = tested on: OVCAR-4
[33] = tested on: OVCAR-5
[34] = tested on: PC-3
[35] = tested on: RPMI-8226
[36] = tested on: RXF 393
[37] = tested on: SF-295
[38] = tested on: SF-539
[39] = tested on: SK-MEL-28
[40] = tested on: SK-MEL-2
[41] = tested on: SK-MEL-5
[42] = tested on: SK-OV-3
[43] = tested on: SN12C
[44] = tested on: SNB-19
[45] = tested on: SNB-75
[46] = tested on: SR
[47] = tested on: SW-620
[48] = tested on: T47D
[49] = tested on: TK-10
[50] = tested on: U-251
[51] = tested on: UACC-257
[52] = tested on: UACC-62
[53] = tested on: UO-31
[54] = tested on: CCRF-CEM
[55] = tested on: HL-60
[56] = tested on: HOP-92
[57] = tested on: NCI-H226
[58] = tested on: OVCAR-8
[59] = tested on: SF-268

Measured: GI50

O=C(O)C1CC2(C1)CC(C(=O)O)C2 (stereo not given)
> 100 µM: [12]
inactive: [1] > 100 µM | [2] > 100 µM | [3] > 100 µM | [4] > 100 µM | [5] > 100 µM | [6] > 100 µM | [7] > 100 µM | [8] > 100 µM | [9] > 100 µM | [10] > 100 µM | [11] > 100 µM | [13] > 100 µM | [14] > 100 µM | [15] > 100 µM | [16] > 100 µM | [17] > 100 µM | [18] > 100 µM | [19] > 100 µM | [20] > 100 µM | [21] > 100 µM | [22] > 100 µM | [23] > 100 µM | [24] > 100 µM | [25] > 100 µM | [26] > 100 µM | [27] > 100 µM | [28] > 100 µM | [29] > 100 µM | [30] > 100 µM | [31] > 100 µM | [32] > 100 µM | [33] > 100 µM | [34] > 100 µM | [35] > 100 µM | [36] > 100 µM | [37] > 100 µM | [38] > 100 µM | [39] > 100 µM | [40] > 100 µM | [41] > 100 µM | [42] > 100 µM | [43] > 100 µM | [44] > 100 µM | [45] > 100 µM | [46] > 100 µM | [47] > 100 µM | [48] > 100 µM | [49] > 100 µM | [50] > 100 µM | [51] > 100 µM | [52] > 100 µM | [53] > 100 µM

C=C1C2CCC3C4(C)CCCC(C)(C(=O)O)C4CCC3(C2)C1OC(=O)/C(C)=C/C (stereo not given)
inactive: [1] 60.7 µM | [2] 25.3 µM | [3] 35.9 µM | [4] 36.1 µM | [5] 41.8 µM | [6] 26.2 µM | [54] 53.2 µM | [7] 29.6 µM | [8] 42.3 µM | [9] 35.1 µM | [10] 26.7 µM | [11] 38.5 µM | [55] 29.9 µM | [13] 45.6 µM | [56] 25.6 µM | [14] 33.4 µM | [15] 35.2 µM | [16] 27.1 µM | [18] 17.3 µM | [19] 34.5 µM | [20] 20.8 µM | [21] 32.7 µM | [22] 20.9 µM | [23] 34 µM | [24] 22.6 µM | [26] 30 µM | [57] 36 µM | [27] 36.8 µM | [28] 34.6 µM | [29] 31.8 µM | [30] 21.1 µM | [31] 19.8 µM | [32] 41.6 µM | [33] 28.4 µM | [58] 32.7 µM | [34] 31.3 µM | [36] 15.9 µM | [59] 38.7 µM | [37] 20.3 µM | [38] 27.5 µM | [39] 51.6 µM | [40] 36.1 µM | [41] 27.4 µM | [42] 27.5 µM | [43] 23 µM | [45] 70.8 µM | [46] 2.98 µM | [47] 61.7 µM | [48] 43 µM | [49] 72.8 µM | [50] 30.7 µM | [51] 39.7 µM | [52] 25.6 µM | [53] 21 µM
22.9 µM: [12]

CSc1ccn(C2CC(F)C(CO)O2)c(=O)n1 (stereo not given)
inactive: [1] > 100 µM | [2] > 100 µM | [3] > 100 µM | [4] > 100 µM | [5] > 100 µM | [6] > 100 µM | [54] > 100 µM | [7] > 100 µM | [8] > 100 µM | [9] > 100 µM | [10] > 100 µM | [11] > 100 µM | [55] > 100 µM | [13] > 100 µM | [56] > 100 µM | [14] > 100 µM | [15] > 100 µM | [16] > 100 µM | [17] > 100 µM | [18] > 100 µM | [19] > 100 µM | [20] > 100 µM | [21] > 100 µM | [22] > 100 µM | [23] > 100 µM | [24] > 100 µM | [25] > 100 µM | [26] > 100 µM | [57] > 100 µM | [27] > 100 µM | [28] > 100 µM | [29] > 100 µM | [30] > 100 µM | [31] > 100 µM | [32] > 100 µM | [33] > 100 µM | [58] > 100 µM | [34] > 100 µM | [36] > 100 µM | [59] > 100 µM | [37] > 100 µM | [38] > 100 µM | [40] > 100 µM | [41] > 100 µM | [42] > 100 µM | [43] > 100 µM | [44] > 100 µM | [45] > 100 µM | [46] > 100 µM | [47] > 100 µM | [48] > 100 µM | [49] > 100 µM | [50] > 100 µM | [51] > 100 µM | [52] > 100 µM | [53] > 100 µM
> 100 µM: [12]
